Laboratory results from US20230183219A1, “CONDENSED SUBSTITUTED HYDROPYRROLES AS ANTAGONISTS OF THE MUSCARINIC ACETYLCHOLINE RECEPTOR M4” (Vanderbilt University, priority 2020, published 2023).

Molecular target: T1, Human M4 (Homo sapiens, UniProt P08173)
T1 construct: Human or rat M4 cDNA, along with the chimeric G protein Gqi5, were transfected into Chinese hamster ovary (CHO-K1) cells; expressed in transfected cells; host or cells: CHO-K1 (Chinese hamster ovary, ATCC), stably co-expressing Gqi5
T1 sequence (P08173 1-479): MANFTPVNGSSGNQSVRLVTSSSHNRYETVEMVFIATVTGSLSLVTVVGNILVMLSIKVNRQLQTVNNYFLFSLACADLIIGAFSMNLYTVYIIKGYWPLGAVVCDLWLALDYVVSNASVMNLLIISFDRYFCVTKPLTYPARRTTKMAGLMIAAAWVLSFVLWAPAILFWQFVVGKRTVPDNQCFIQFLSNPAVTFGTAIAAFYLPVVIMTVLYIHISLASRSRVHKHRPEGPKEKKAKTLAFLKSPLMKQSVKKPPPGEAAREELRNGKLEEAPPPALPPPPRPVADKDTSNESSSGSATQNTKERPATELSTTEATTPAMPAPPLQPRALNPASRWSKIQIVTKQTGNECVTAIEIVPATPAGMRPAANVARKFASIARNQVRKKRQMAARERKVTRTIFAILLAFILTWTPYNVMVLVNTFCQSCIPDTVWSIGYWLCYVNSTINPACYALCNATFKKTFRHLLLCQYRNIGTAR
Experiment: mAChR M4 cell-based functional assay (calcium flux, decrease of EC80 acetylcholine response)
Details: for remaining activity at 30 µM: % ACh maximum at 30 μM, read-out: Human M4 Emin; for IC50: M4/Gqi5/CHO-K1 cells, decrease of response to EC80 acetylcholine
How it was run: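 CHO-K1 cells stably co-expressing M4 and chimeric Gqi5, loaded with Fluo-4 AM; calcium flux read on FDSS. Compound added at 2 s, EC20 acetylcholine at 143 s, EC80 acetylcholine at 268 s. IC50 from concentration-dependent decrease of the EC80 response, four-parameter logistic fit; 10-point 1:3 titrations.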

Row | SMILES | remaining activity at 30 µM [%] | IC50 [nM]
1 | Fc1ccc(C(F)(F)F)cc1-c1cc(C(F)(F)F)c(N[C@H]2C[C@@H]3CN(CC4CCOCC4)C[C@@H]3C2)nn1 [Example 89, (3aR,5s,6aS)-N-(6-(2-fluoro-5-(trifluoromethyl)phenyl)-4-(trifluoromethyl)pyridazin-3-yl)-2-((tetrahydro-2H-pyran-4-yl)methyl)octahydro-cyclopenta[c]pyrrol-5-amine] | 4 | 634
2 | Cn1ccc2ccc(-c3cc(C(F)(F)F)c(N[C@H]4C[C@@H]5CN(CC6CCOCC6)C[C@@H]5C4)nn3)cc21 [Example 90, (3aR,5s,6aS)-N-(6-(1-methyl-1H-indol-6-yl)-4-(trifluoromethyl)pyridazin-3-yl)-2-((tetrahydro-2H-pyran-4-yl)methyl)octahydro-cyclopenta[c]pyrrol-5-amine] | 4 | 637
3 | CCOc1cc(F)c(-c2cc(C(F)(F)F)c(N[C@H]3C[C@@H]4CN(CC5CCOCC5)C[C@@H]4C3)nn2)cc1F [Example 91, (3aR,5s,6aS)-N-(6-(4-ethoxy-2,5-difluorophenyl)-4-(trifluoromethyl)pyridazin-3-yl)-2-((tetrahydro-2H-pyran-4-yl)methyl)octahydro-cyclopenta[c]pyrrol-5-amine] | 3 | 280
4 | Cc1cc(-c2cc(C(F)(F)F)c(N[C@H]3C[C@@H]4CN(CC5CCOCC5)C[C@@H]4C3)nn2)c(F)cc1F [Example 92, (3aR,5s,6aS)-N-(6-(2,4-difluoro-5-methylphenyl)-4-(trifluoromethyl)pyridazin-3-yl)-2-((tetrahydro-2H-pyran-4-yl)methyl)octahydro-cyclopenta[c]pyrrol-5-amine] | 2 | 338
5 | Cc1cc(F)c(F)c(-c2cc(C(F)(F)F)c(N[C@H]3C[C@@H]4CN(CC5CCOCC5)C[C@@H]4C3)nn2)c1 [Example 93, (3aR,5s,6aS)-N-(6-(2,3-difluoro-5-methylphenyl)-4-(trifluoromethyl)pyridazin-3-yl)-2-((tetrahydro-2H-pyran-4-yl)methyl)octahydro-cyclopenta[c]pyrrol-5-amine] | 3 | 172
6 | Fc1ccc(C2CC2)cc1-c1cc(C(F)(F)F)c(N[C@H]2C[C@@H]3CN(CC4CCOCC4)C[C@@H]3C2)nn1 [Example 94, (3aR,5s,6aS)-N-(6-(5-cyclopropyl-2-fluorophenyl)-4-(trifluoromethyl)pyridazin-3-yl)-2-((tetrahydro-2H-pyran-4-yl)methyl)octahydro-cyclopenta[c]pyrrol-5-amine] | 3 | 1330
7 | CCc1ccc(F)c(-c2cc(C(F)(F)F)c(N[C@H]3C[C@@H]4CN(CC5CCOCC5)C[C@@H]4C3)nn2)c1 [Example 95, (3aR,5s,6aS)-N-(6-(5-ethyl-2-fluorophenyl)-4-(trifluoromethyl)pyridazin-3-yl)-2-((tetrahydro-2H-pyran-4-yl)methyl)octahydro-cyclopenta[c]pyrrol-5-amine] | 3 | 931
8 | CC(C)c1ccc(F)c(-c2cc(C(F)(F)F)c(N[C@H]3C[C@@H]4CN(CC5CCOCC5)C[C@@H]4C3)nn2)c1 [Example 96, (3aR,5s,6aS)-N-(6-(2-fluoro-5-isopropylphenyl)-4-(trifluoromethyl)pyridazin-3-yl)-2-((tetrahydro-2H-pyran-4-yl)methyl)octahydro-cyclopenta[c]pyrrol-5-amine] | 3 | 2040
9 | CC(C)Oc1cc(F)c(-c2cc(C(F)(F)F)c(N[C@H]3C[C@@H]4CN(CC5CCOCC5)C[C@@H]4C3)nn2)cc1F [Example 97, (3aR,5s,6aS)-N-(6-(2,5-difluoro-4-isopropoxyphenyl)-4-(trifluoromethyl)pyridazin-3-yl)-2-((tetrahydro-2H-pyran-4-yl)methyl)octahydro-cyclopenta[c]pyrrol-5-amine] | 3 | 757
